Columns and labels:
Type in all cases: cell-based, HSV-1 (KOS strain)
[1] = system: HSV-1; experiment: HSV-1 cytopathic effect in infected hTCEpi cells (phase contrast); settings: MOI 0.1, inhibitor 10 μM, 20 hpi
Experimental: All cells were cultured at 37° C. and 5% CO2 and supplemented with 100 U/mL penicillin and […]. Human corneal epithelial cells immortalized with hTERT (hTCEpi; Robertson, et al., 2005, Invest Ophthalmol Vis Sci. 46:470-478) were grown in complete keratinocyte growth medium 2 (KGM-2; Lonza, Basel, Switzerland). African green monkey kidney fibroblasts (CV-1; American Type Culture Collection, Manassas, Va.) were grown in Dulbecco's modified Eagle's medium (DMEM; Cellgro, Manassas, Va.) supplemented with 10% FBS. The KOS strain of HSV-1 was used in the in vitro and ex vivo infections, whereas McKrae strain was used for in vivo mouse experiments, and TK mutant dlsptk strain (Coen et al., 1989, Proc Natl Acad Sci USA 86:4736-4740) was used in the drug resistance experiments. All viral stocks were titered on CV-1 monolayers.
The following strains of HSV-1 were used: KOS, ICPO-null, HFEM, and tsB7. Subconfluent monolayers of cells were grown in six-well plates. Drug treatments were administered 45 minutes prior to infection and continued for the entire duration of each experiment. Unless indicated otherwise, KU-55933 (Batch No. 5, 99.7% purity; Tocris Bioscience, Bristol, UK) was used at 10 μM final concentration, phosphonoacetic acid (PAA) at 400 μg/mL (Sigma-Aldrich, St. Louis, Mo.), and acyclovir at 50 μg/mL (Sigma-Aldrich). […]

[2] = system: HSV-1; experiment: Ex vivo HSV-1 infection of explanted rabbit corneas, qPCR of viral genome; settings: for viral genome replication in corneal epithelium (qPCR): 1×10^4 PFU/cornea, 10 μM
Experimental: (§1) Human corneas were obtained from the Lions Eye Bank of Delaware Valley. Rabbit corneas were excised from intact fresh eyeballs of young (8-12 weeks) albino rabbits (Pel-Freez Biologicals, Rogers, Ark.). Protocol (Alekseev et al., 2012, J Vis Exp 69:e3631) for ex vivo corneal culture, infection, and treatment was followed closely. Briefly, corneoscleral buttons were excised and rinsed in PBS containing 200 U/mL penicillin and 200 μg/mL streptomycin. The endothelial concavity was filled with culture medium containing 1% low melting temperature agarose. The corneas were cultured epithelial side up in MEM medium supplemented with nonessential amino acids (1×), 2 mM […], 200 U/mL penicillin, and 200 μg/mL streptomycin. The next day, they were infected with 1×10^4 plaque forming units (PFU)/cornea of strain KOS HSV-1 for 1 hour, rinsed, and overlaid with fresh medium. Drug treatments were administered at the same concentrations as for cultured cells. For KU-55933 bioavailability assessment, corneas were treated with bleomycin (200 μg/mL) for 1 hour. The epithelial cell layer was collected by scraping to isolate DNA or protein. For immunohistochemistry studies, corneas were flash frozen in optimal cutting temperature (OCT) compound, sectioned, and immunostained using standard protocols. Treatment toxicity was assessed by briefly staining the cornea with fluorescein (1% wt/vol in PBS) and imaging the epithelial defects with 464-nm wavelength blue light (LDP LLC, Carlstadt, N.J.).
(§2) Viral genome replication and transcription were measured by quantitative PCR (qPCR). Total DNA and RNA from infected cells were isolated using the DNeasy Blood & Tissue Kit and the RNeasy Mini Kit, respectively (QIAGEN, Hilden, Germany). RNA was converted to cDNA using qScript (Quanta BioSciences, Gaithersburg, Md.). Real-time qPCR was performed with SYBR Green (Bio-Rad, Hercules, Calif.). Target primers for UL30 (DNA polymerase catalytic subunit) and reference primers for glyceraldehyde 3-phosphate dehydrogenase (GAPDH) were used to measure genome replication. Transcription of the three gene families was measured with primers for RL2 (ICPO), UL30 (DNA polymerase catalytic subunit), and UL44 (gC), with reference primers for the 18S ribosomal RNA (rRNA).
Human corneas were obtained from the Lions Eye Bank of Delaware Valley. Rabbit corneas were excised from intact fresh eyeballs of young (8-12 weeks) albino rabbits (Pel-Freez Biologicals, Rogers, Ark.). The protocol (Alekseev et al., 2012, J. Vis. Exp. e3631) for ex vivo corneal culture and infection was followed, and treatment was administered immediately after infection. Briefly, corneoscleral buttons were excised and rinsed in PBS containing 200 U/ml penicillin and 200 μg/ml streptomycin. The endothelial concavity was filled with culture medium containing 1% low melting temperature agarose. The corneas were cultured epithelial side up in MEM medium supplemented with non-essential amino acids (1×), 2 mM […], 200 U/ml penicillin, and 200 μg/ml streptomycin. The next day, they were infected with 1×10^4 PFU/cornea of strain KOS HSV-1 for 1 hour, rinsed, and overlaid with fresh medium. Drug treatments were administered at the same concentrations as for cultured cells. […]
(§3) Total DNA from infected cells and corneas was isolated using the DNeasy Blood & Tissue Kit (QIAGEN, Hilden, Germany). Real time quantitative PCR was performed with SYBR Green (Bio-Rad, Hercules, Calif.). […]

[3] = system: HSV-1; experiment: Ex vivo HSV-1 infection of explanted human corneas, qPCR of viral genome; settings: 48 hpi; for viral genome replication in corneal epithelium (qPCR): 1×10^4 PFU/cornea
Experimental: as §1, §2
Human corneas were obtained from the Lions Eye Bank of Delaware Valley. Rabbit corneas were excised from intact fresh eyeballs of young (8-12 weeks) albino rabbits (Pel-Freez Biologicals, Rogers, Ark.). […]
as §3

[4] = system: HSV-1; experiment: qPCR of viral genome replication in HSV-1 infected hTCEpi cells; settings: for viral genome replication (qPCR): MOI 0.1, inhibitor 10 μM
Experimental: The following strains of HSV-1 were used: KOS, ICPO-null, HFEM, and tsB7. Subconfluent monolayers of cells were grown in six-well plates. Drug treatments were administered 45 minutes prior to infection and continued for the entire duration of each experiment. Unless indicated otherwise, KU-55933 (Batch No. 5, 99.7% purity; Tocris Bioscience, Bristol, UK) was used at 10 μM final concentration, phosphonoacetic acid (PAA) at 400 μg/mL (Sigma-Aldrich, St. Louis, Mo.), and acyclovir at 50 μg/mL (Sigma-Aldrich). KU-55933 was dissolved in dimethyl sulfoxide (DMSO), and the final concentration of DMSO in both KU-55933 and mock treatment in the in vitro and the ex vivo experiments was 0.1%.
Infections with KOS strain of HSV-1 were carried out in six-well plates in a 200 μL inoculum volume at 37° C. for 1 hour with intermittent rocking. The cells were then rinsed and overlaid with fresh medium.
Cells were grown in 6-well plates and used in experiments at −80% confluence. Drug treatments were administered 45 min prior to infection and continued for the entire duration of each experiment. Unless indicated otherwise, Chk2 inhibitor II (>98% purity by HPLC) was used at 10 μM final concentration, and phosphonoacetic acid (PAA) at 400 μg/ml (both from Sigma-Aldrich, St. Louis, Mo.). Chk2 inhibitor II was dissolved in DMSO such that the final concentration of DMSO in both Chk2 inhibitor II and mock treatment was 0.1%. Infections with KOS strain of HSV-1 were carried out in 6-well plates in a 200 μl inoculum volume at 37° C. for 1 hour with intermittent rocking. The cells were then thoroughly rinsed and overlaid with fresh medium.
Total DNA from infected cells and corneas was isolated using the DNeasy Blood & Tissue Kit (QIAGEN, Hilden, Germany). Real time quantitative PCR was performed with SYBR Green (Bio-Rad, Hercules, Calif.). Target primers for UL30 (DNA polymerase catalytic subunit) and reference primers for GAPDH were used to measure viral genome abundance. Primer sequences were based on the KOS genome (accession #JQ673480.1).

`NC(=O)c1ccc2[nH]c(-c3ccc(Oc4ccc(Cl)cc4)cc3)nc2c1` [Chk2 inhibitor II, 2-(4-(4-chlorophenoxy)phenyl)-1H-benzimidazole-5-carboxamide] was tested, and the “cytopathic effect (CPE) of HSV-1” value [1] was “almost completely eliminated”, the “HSV-1 inhibition in rabbit compared with human corneas” value ([2]; Chk2 inhibitor II 10 μM, 48 hpi) was “slightly less potent” and the “HSV-1 growth following the removal of inhibitor” value ([2]; rabbit corneas, 10 μM for 48 hours, then inhibitor-free medium) was “resume normal growth”. The “time to which the effect of inhibition was maintained” value ([2]; rabbit corneas, 10 μM for 48 hours, then inhibitor-free medium for 48 hours, latest time point tested) was no less than 96 hpi, the “viral genome replication in corneal epithelium (qPCR)” value ([2]; rabbit corneas, 48 hpi) was “did not support productive infection” and the “difference in viral genome levels versus positive controls treated with PAA” value ([3]; human corneas, 10 μM, PAA 400 μg/ml) was “no statistical significance”. The “viral genome replication in corneal epithelium (qPCR)” value ([3]; human corneas, 10 μM) was “did not support productive infection”, the “viral genome replication (qPCR)” value ([4]; hTCEpi cells) was “profoundly reduced” and the “viral genome levels (qPCR) at high viral load” value ([4]; hTCEpi cells, MOI 5, 10 μM) was “reduced yet still substantial decrease”.

With `O=c1cc(-c2cccc3c2Sc2ccccc2S3)oc(N2CCOCC2)c1` [KU-55933, 2-(morpholin-4-yl)-6-(thianthren-1-yl)-pyran-4-one] the “cytopathic effect (CPE) of HSV-1” value [1] was “prevented”, the “viral genome replication in corneal epithelium (qPCR)” value ([2]; rabbit corneas, 48 hpi) was “greatly reduced” and the “effect on viral genome replication, human compared with rabbit corneas” value ([3]; KU-55933 10 μM) was “more pronounced in human corneas”. For the same compound, the “viral genome replication in corneal epithelium (qPCR)” value ([3]; human corneas, 10 μM) was “greatly reduced”, the “viral genome replication (qPCR)” value ([4]; hTCEpi cells) was “sharp reduction” and the “effect of addition on the dose-response curve of the partner drug” value ([4]; hTCEpi, MOI 0.1, KU-55933 0-7 μM with acyclovir 0-1.5 μg/mL, 16 hpi) was “shifted the acyclovir dose-response curve to the left”.
